Results reported in patent EP0378255B1, “2-Aminopyrimidinone derivatives” (JANSSEN PHARMACEUTICA N.V., priority 1989, dated 1990).
Read-outs that look alike come from different tables or passages of the source.

Tests used:
Type in all cases: in vivo
Tryptamine = assay: Combined Apomorphine, Tryptamine and Norepinephrine (ATN) test in rats: tryptamine part; conditions: Rattus norvegicus
Norepinephrine = assay: Combined Apomorphine, Tryptamine and Norepinephrine (ATN) test in rats: norepinephrine part; conditions: Rattus norvegicus; read-out: Combined ATN test in rats ED₅₀ values (NOR)
Experimental: (§1) Int. Pharmacodyn. Ther., 227, 238-253, 1977. Further the activity of the subject compounds as serotonin antagonists is evidenced by the experimental data obtained in the "Gastric Lesions induced by compound 48/80 in rats" test, described in U.S.-4,335,127. […] All tests were carried out following the procedures described in the cited references and the experimental data are shown in Table 8.

compound 48/80 [1] = assay: Gastric Lesions induced by compound 48/80 in rats (serotonin antagonism); conditions: Rattus norvegicus, read-out: Compound 48/80 tests ED₅₀ values Gastric lesions
Experimental: as §1

Apomorphine = assay: Combined Apomorphine, Tryptamine and Norepinephrine (ATN) test in rats: apomorphine part; conditions: Rattus norvegicus; read-out: Combined ATN test in rats ED₅₀ values (APO)
Wistar rats = assay: Sleep-wakefulness patterns in the rat (polygraphic EEG/EOG/EMG recording); conditions: for MEAN DURATION OF EPISODES PS / MEAN DURATION OF EPISODES SWS1 / MEAN DURATION OF EPISODES SWS2 / MEAN DURATION OF EPISODES W / NUMBER OF EPISODES PS / NUMBER OF EPISODES SWS1 / NUMBER OF EPISODES SWS2 / NUMBER OF EPISODES W: means ± SEM of 10 rats
Experimental: Under pentobarbital anesthesia (50 mg/kg i.p.) 10 adult male Wistar rats weighing 240 to 260 g were chronically implanted for standard polygraphic recording of electroencephalogram (EEG), electro-oculogram (EOG) and electromyogram (EMG). After a 8-10 day recovery period from surgery and habituation to the recording conditions ( 12 h light-dark schedule, light on at 9:00 am.), pharmacological tests were started. The animals received 0.04, 0.16 or 0.63 mg/kg of compound 39 dissolved in 1 mM tartaric acid and injected i.p. at the onset of the light period. A minimum of 3 recovery days was allowed between two treatments. Polygraphic recordings were scored visually and classified as being either wakefulness (W), light slow wave sleep (SWS1), deep slow wave sleep (SWS2) or paradoxical sleep (PS). Sleep-wakefulness parameters were analyzed for each of the two successive 4 h periods following the treatment and compared to baseline (vehicle injection under the same conditions). The amounts of sleep and wakefulness states were expressed as percentage of baseline recordings which represented means of two baseline values per animal. Statistical tests were performed by means of the two-tailed Student t-test.

compound 48/80 [2] = assay: Protection of Rats from compound 48/80 induced lethality (antihistaminic activity); conditions: Rattus norvegicus, read-out: Compound 48/80 tests ED₅₀ values Lethality
Experimental: as §1

[3] = convulsions, read-out: Combined ATN test in rats ED₅₀ values (TRY) convulsions
[4] = hyperaemia, read-out: Combined ATN test in rats ED₅₀ values (TRY) hyperaemia
[5] = 0-4h after treatment, 0.04 mg/kg i.p.
[6] = 0-4h after treatment, 0.16 mg/kg i.p.
[7] = 0-4h after treatment, 0.63 mg/kg i.p.
[8] = 4-8h after treatment, 0.04 mg/kg i.p.
[9] = 4-8h after treatment, 0.16 mg/kg i.p.
[10] = 4-8h after treatment, 0.63 mg/kg i.p.

`Cc1nc(NCc2ccccn2)n(C)c(=O)c1CCN1CCC(c2noc3cc(F)ccc23)CC1` [Compound 19] showed an ED50 (Tryptamine; [3]) of 0.31 mg/kg, an ED50 (Tryptamine; [4]) of 0.0025 mg/kg and an ED50 (Norepinephrine) of 0.08 mg/kg. The ED50 (compound 48/80 [1]) was 0.04 mg/kg and the ED50 (Apomorphine) was 0.08 mg/kg.
Compound `CC(=O)Nc1nc(C)c(CCN2CCC(C(=O)c3ccc(F)cc3)CC2)c(=O)n1C` [Compound 34] has an ED50 (Tryptamine; [3]) of 0.31 mg/kg, an ED50 (Tryptamine; [4]) of 0.005 mg/kg and an ED50 (Norepinephrine) of 1.25 mg/kg. For the same compound, the ED50 (compound 48/80 [1]) was 0.04 mg/kg and the ED50 (Apomorphine) was 0.31 mg/kg.
For `CNc1nc(C)c(CCN2CCC(=C(c3ccc(F)cc3)c3ccc(F)cc3)CC2)c(=O)n1C` [Compound 39, 5-[2-[4-[bis(4-fluorophenyl)methylene]-1-piperidinyl]ethyl]-3,6-dimethyl-2-(methylamino)-4(3H)-pyrimidinone], the “MEAN DURATION OF EPISODES PS” value (Wistar rats; [5]) was 2.1 ± 0.2 min, the “MEAN DURATION OF EPISODES SWS1” value (Wistar rats; [5]) was 0.8 ± 0.0 min and the “MEAN DURATION OF EPISODES SWS2” value (Wistar rats; [5]) was 4.7 ± 0.5 min. The “MEAN DURATION OF EPISODES W” value (Wistar rats; [5]) was 2.6 ± 0.3 min, the “NUMBER OF EPISODES PS” value (Wistar rats; [5]) was 4±1 and the “NUMBER OF EPISODES SWS1” value (Wistar rats; [5]) was 33±3. The “NUMBER OF EPISODES SWS2” value (Wistar rats; [5]) was 32±3, the “NUMBER OF EPISODES W” value (Wistar rats; [5]) was 26±3 and the “MEAN DURATION OF EPISODES PS” value (Wistar rats; [6]) was 2.0 ± 0.3 min. The “MEAN DURATION OF EPISODES SWS1” value (Wistar rats; [6]) was 0.9 ± 0.0 min, the “MEAN DURATION OF EPISODES SWS2” value (Wistar rats; [6]) was 5.8 ± 0.5 min and the “MEAN DURATION OF EPISODES W” value (Wistar rats; [6]) was 2.9 ± 0.3 min. For the same compound, the “NUMBER OF EPISODES PS” value (Wistar rats; [6]) was 3±1, the “NUMBER OF EPISODES SWS1” value (Wistar rats; [6]) was 28±2 and the “NUMBER OF EPISODES SWS2” value (Wistar rats; [6]) was 27±2. The “NUMBER OF EPISODES W” value (Wistar rats; [6]) was 23±1, the “MEAN DURATION OF EPISODES PS” value (Wistar rats; [7]) was 2.2 ± 0.4 min and the “MEAN DURATION OF EPISODES SWS1” value (Wistar rats; [7]) was 0.8 ± 0.0 min. The “MEAN DURATION OF EPISODES SWS2” value (Wistar rats; [7]) was 5.9 ± 0.4 min, the “MEAN DURATION OF EPISODES W” value (Wistar rats; [7]) was 2.7 ± 0.2 min and the “NUMBER OF EPISODES PS” value (Wistar rats; [7]) was 3±1. For the same compound, the “NUMBER OF EPISODES SWS1” value (Wistar rats; [7]) was 26±2, the “NUMBER OF EPISODES SWS2” value (Wistar rats; [7]) was 27±2 and the “NUMBER OF EPISODES W” value (Wistar rats; [7]) was 22±1. For the same compound, the “doses giving significant effects” value (Wistar rats; 0.04, 0.16 or 0.63 mg/kg i.p., two-tailed Student t-test) was “Significant effects were observed from the lowest dose upwards”, the dose-related response (Wistar rats; 0.04 to 0.63 mg/kg i.p.) was “a clear dose-related response was obtained” and the “sleep-wakefulness changes (SWS2, W, SWS1, PS)” value (Wistar rats; 0.04 to 0.63 mg/kg i.p. at the onset of the light period, 8 h recording period) was “dose-dependent increase of SWS2 combined with a dose-related deficit in W, SWS1 and PS”. The “SWS2 episodes: duration and number” value (Wistar rats; 0.04 to 0.63 mg/kg i.p., summary of Table 7) was “marked prolongation of SWS2 episodes, whereas the number of episodes was reduced”, the “MEAN DURATION OF EPISODES PS” value (Wistar rats; [8]) was 1.9 ± 0.1 min and the “MEAN DURATION OF EPISODES SWS1” value (Wistar rats; [8]) was 0.7 ± 0.0 min. The “MEAN DURATION OF EPISODES SWS2” value (Wistar rats; [8]) was 3.5 ± 0.2 min, the “MEAN DURATION OF EPISODES W” value (Wistar rats; [8]) was 2.0 ± 0.2 min and the “NUMBER OF EPISODES PS” value (Wistar rats; [8]) was 13±1. The “NUMBER OF EPISODES SWS1” value (Wistar rats; [8]) was 35±3, the “NUMBER OF EPISODES SWS2” value (Wistar rats; [8]) was 41±3 and the “NUMBER OF EPISODES W” value (Wistar rats; [8]) was 26±2. For the same compound, the “MEAN DURATION OF EPISODES PS” value (Wistar rats; [9]) was 2.1 ± 0.1 min, the “MEAN DURATION OF EPISODES SWS1” value (Wistar rats; [9]) was 0.7 ± 0.0 min and the “MEAN DURATION OF EPISODES SWS2” value (Wistar rats; [9]) was 3.9 ± 0.3 min. The “MEAN DURATION OF EPISODES W” value (Wistar rats; [9]) was 2.0 ± 0.3 min, the “NUMBER OF EPISODES PS” value (Wistar rats; [9]) was 12±1 and the “NUMBER OF EPISODES SWS1” value (Wistar rats; [9]) was 35±2. The “NUMBER OF EPISODES SWS2” value (Wistar rats; [9]) was 39±2, the “NUMBER OF EPISODES W” value (Wistar rats; [9]) was 23±2 and the “MEAN DURATION OF EPISODES PS” value (Wistar rats; [10]) was 2.1 ± 0.1 min. For the same compound, the “MEAN DURATION OF EPISODES SWS1” value (Wistar rats; [10]) was 0.7 ± 0.0 min, the “MEAN DURATION OF EPISODES SWS2” value (Wistar rats; [10]) was 3.7 ± 0.2 min and the “MEAN DURATION OF EPISODES W” value (Wistar rats; [10]) was 1.9 ± 0.2 min. For the same compound, the “NUMBER OF EPISODES PS” value (Wistar rats; [10]) was 12±1, the “NUMBER OF EPISODES SWS1” value (Wistar rats; [10]) was 34±2 and the “NUMBER OF EPISODES SWS2” value (Wistar rats; [10]) was 40±2. The “NUMBER OF EPISODES W” value (Wistar rats; [10]) was 26±2, the “effective dose, lower than that of ritanserin by” value (Wistar rats; comparison with ritanserin) was 10 fold and the sleep-wakefulness response (Wistar rats; doses of 0.04 and 0.16 mg/kg i.p.) was “significant sleep-wakefulness response”.
With `CCNc1nc(C)c(CCN2CCN(c3noc4ccccc34)CC2)c(=O)n1C` [Compound 69] the ED50 (Tryptamine; [3]) was 0.31 mg/kg, the ED50 (Tryptamine; [4]) was 0.00125 mg/kg and the ED50 (Norepinephrine) was 0.31 mg/kg. The ED50 (compound 48/80 [1]) was 0.00125 mg/kg, the ED50 (compound 48/80 [2]) was 0.02 mg/kg and the ED50 (Apomorphine) was 0.08 mg/kg.
In the case of `CCCNc1nc(C)c(CCN2CCN(c3nsc4ccccc34)CC2)c(=O)n1C` [Compound 71], the ED50 (Tryptamine; [3]) is reported as 0.08 mg/kg, the ED50 (Tryptamine; [4]) is reported as 0.005 mg/kg and the ED50 (Norepinephrine) is reported as 1.25 mg/kg. The ED50 (compound 48/80 [1]) was 0.63 mg/kg, the ED50 (compound 48/80 [2]) was 0.16 mg/kg and the ED50 (Apomorphine) was 0.08 mg/kg.
For `Cc1nc2n(C)ccn2c(=O)c1CCN1CCC(c2noc3cc(F)ccc23)CC1` [Compound 77], the ED50 (Tryptamine; [3]) was 0.04 mg/kg, the ED50 (Tryptamine; [4]) was at most 0.00063 mg/kg and the ED50 (Norepinephrine) was 0.16 mg/kg. It also gave an ED50 (compound 48/80 [1]) of 0.04 mg/kg, an ED50 (compound 48/80 [2]) of 0.005 mg/kg and an ED50 (Apomorphine) of 0.04 mg/kg.
`Cc1nc2n(c(=O)c1CCN1CCC(c3noc4cc(F)ccc34)CC1)CCN2C` [Compound 80] gave an ED50 (Tryptamine; [3]) of 0.08 mg/kg, an ED50 (Tryptamine; [4]) of 0.00125 mg/kg and an ED50 (Norepinephrine) of 0.31 mg/kg. It also gave an ED50 (compound 48/80 [1]) of 0.04 mg/kg, an ED50 (compound 48/80 [2]) of 0.005 mg/kg and an ED50 (Apomorphine) of 0.08 mg/kg.
With `CC1=NN(C)c2nc(C)c(CCN3CCC(c4noc5cc(F)ccc45)CC3)c(=O)n2C1` [Compound 86] the ED50 (Tryptamine; [3]) was 0.04 mg/kg, the ED50 (Tryptamine; [4]) was 0.00125 mg/kg and the ED50 (Norepinephrine) was 0.08 mg/kg. For the same compound, the ED50 (compound 48/80 [1]) was 0.02 mg/kg and the ED50 (Apomorphine) was 0.04 mg/kg.
For `Cc1nc2n(C)nc(C)n2c(=O)c1CCN1CCC(c2noc3cc(F)ccc23)CC1` [Compound 88], the ED50 (Tryptamine; [3]) was 0.08 mg/kg, the ED50 (Tryptamine; [4]) was 0.00125 mg/kg and the ED50 (Norepinephrine) was 0.16 mg/kg. It also gave an ED50 (compound 48/80 [1]) of 0.04 mg/kg and an ED50 (Apomorphine) of 0.08 mg/kg.
